Results reported in patent US9040516B2, “Uracil derivative and use thereof for medical purposes” (SUMITOMO DAINIPPON PHARMA CO., LTD., priority 2011, dated 2015).

Biological target: T1, human neutrophil elastase (Homo sapiens, UniProt P08246)
T1 construct: purchased Elastin Products Company
T1 sequence (P08246 30-267): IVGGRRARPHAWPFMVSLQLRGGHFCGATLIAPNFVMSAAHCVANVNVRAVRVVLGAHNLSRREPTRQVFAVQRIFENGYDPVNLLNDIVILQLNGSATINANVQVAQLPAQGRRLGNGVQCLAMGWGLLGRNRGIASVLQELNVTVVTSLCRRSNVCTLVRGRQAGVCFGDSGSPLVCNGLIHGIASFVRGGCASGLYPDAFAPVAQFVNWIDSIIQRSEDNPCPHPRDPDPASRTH
Test: Inhibitory action 2 against human neutrophil elastase (Test Example 2; fluorogenic substrate MeOSuc-AAPV-AMC, buffer with 400 mM NaCl, 0.2 mg/ml BSA)
Assay type: biochemical
Conditions: 37° C., read-out: IC50 value (compound concentration required for 50% inhibition of human neutrophil elastase)
Experimental: Assay buffer (0.4 unit/ml HNE (human neutrophil elastase, available from Elastin Products Company), 200 mM HEPES [N-(2-hydroxyethyl)piperazine-N′-(2-ethanesulfonic acid)], pH 7.5, 400 mM NaCl, 0.2 mg/ml BSA (bovine serum albumin)) 100 μl, water for injection 20 μl and 1% DMSO (dimethyl sulfoxide) solution of the present compound 20 μl were mixed in a 96 well plate and the mixed solutions were pre-incubated at 37° C. for five minutes. After pre-incubation, MeOSuc-AAPV-AMC (methoxysuccinyl-alanyl-alanyl-prolyl-valyl-aminomethyl cumaride (available from Sigma Aldrich Corp.) solution as fluorogenic substrate (which was dissolved in 10% DMSO solution so as to adjust to 0.5 mM) 40 μl was added to the above-prepared mixed solution so as to initiate the reaction, and the mixture was incubated at 37° C. for five minutes. The fluorescence intensity of AMC was measured at an excitation wavelength of 380 nm and a fluorescence wavelength of 460 nm and the inhibition ratio was determined.

IC50 | Compound
29.7 nM | CCn1c(=O)c(-c2c(C(C)(C)N)cnn2-c2ccc(C#N)cc2)c(C)n(-c2cccc(C(F)(F)F)c2)c1=O [Example 297, 4-(4-(2-aminopropane-2-yl)-5-(3-ethyl-6-methyl-2,4-dioxo-1-(3-trifluoromethylphenyl)-1,2,3,4-tetrahydropyrimidin-5-yl)-1H-pyrazol-1-yl)benzonitrile]
19.8 nM | Cc1c(-c2c(S(=O)(=O)N3CCOCC3)cnn2-c2ccc(C#N)cc2)c(=O)n(C)c(=O)n1-c1cccc(C(F)(F)F)c1 [Example 221]
25.1 nM | Cc1c(-c2c(C3(O)CCS(=O)(=O)CC3)cnn2-c2ccc(C#N)cc2)c(=O)n(C)c(=O)n1-c1cccc(C(F)(F)F)c1 [Example 293]
26.3 nM | Cc1c(-c2ccnn2-c2ccc(C#N)cc2)c(=O)n(C(C)CNS(C)(=O)=O)c(=O)n1-c1cccc(C(F)(F)F)c1 (stereo not drawn) [Example 393]
24.2 nM | Cc1c(-c2c(N3CCOCC3)cnn2-c2ccc(C#N)cc2)c(=O)n(C)c(=O)n1-c1cccc(C(F)(F)F)c1 [Example 315, 4-(5-(3,6-Dimethyl-2,4-dioxo-1-(3-trifluoromethylphenyl)-1,2,3,4-tetrahydropyrimidin-5-yl)-4-morpholino-1H-pyrazol-1-yl)benzonitrile]
11.4 nM | CCn1c(=O)c(-c2c(C(=O)N(C)CCO)cnn2-c2ccc(C#N)cc2)c(C)n(-c2cccc(C(F)(F)F)c2)c1=O [Example 176]
29.5 nM | Cc1c(-c2c(F)cnn2-c2ccc(C#N)cc2)c(=O)n(C)c(=O)n1-c1cccc(C(F)(F)F)c1 [Example 358, 4-(5-(3,6-dimethyl-2,4-dioxo-1-(3-trifluoromethylphenyl)-1,2,3,4-tetrahydropyrimidin-5-yl)-4-fluoro-1H-pyrazol-1-yl)benzonitrile]
10.1 nM | Cc1c(-c2ccnn2-c2ccc(C#N)cc2)c(=O)n(C(C)CN2CCOCC2)c(=O)n1-c1cccc(C(F)(F)F)c1 (stereo not drawn) [Example 386]
12.6 nM | CCn1c(=O)c(-c2ccnn2-c2ccc(C#N)cc2)c(C)n(-c2cccc(C(F)(F)F)c2)c1=O [Example 41, 4-(5-(3-ethyl-6-methyl-2,4-dioxo-1-(3-(trifluoromethyl)phenyl)-1,2,3,4-tetrahydropyrimidin-5-yl)-1H-pyrazol-1-yl)benzonitrile]
10.4 nM | Cc1c(-c2ccnn2-c2ccc(C#N)cc2)c(=O)n(C(C)CN2CC(O)C2)c(=O)n1-c1cccc(C(F)(F)F)c1 (stereo not drawn) [Example 390]
15.3 nM | CC(=O)N1CCC(n2c(=O)c(-c3c(F)cnn3-c3ccc(C#N)cc3)c(C)n(-c3cccc(C(F)(F)F)c3)c2=O)CC1 [Example 359]
18.6 nM | COC(=O)c1cnn(-c2ccc(C#N)cc2)c1-c1c(C)n(-c2cccc(C(F)(F)F)c2)c(=O)n(C)c1=O [Example 188]
3.5 nM | Cc1c(-c2ccnn2-c2ccc(C#N)cc2)c(=O)n(C(C)C)c(=O)n1-c1cccc(C(F)(F)F)c1 [Example 42, 4-(5-(3-isopropyl-6-methyl-2,4-dioxo-1-(3-(trifluoromethyl)phenyl)-1,2,3,4-tetrahydropyrimidin-5-yl)-1H-pyrazol-1-yl)benzonitrile]
7.3 nM | CCCN1CCC(n2c(=O)c(-c3ccnn3-c3ccc(C#N)cc3)c(C)n(-c3cccc(C(F)(F)F)c3)c2=O)C1 (stereo not drawn) [Example 343]
10.2 nM | Cc1c(-c2ccnn2-c2ccc(C#N)cc2)c(=O)n(C2CCN(C(=O)C(C)(C)N)CC2)c(=O)n1-c1cccc(C(F)(F)F)c1 [Example 357]
24.3 nM | Cc1c(-c2ccnn2-c2ccc(C#N)cc2F)c(=O)n(C)c(=O)n1-c1cccc(C(F)(F)F)c1 [Example 326]
12.9 nM | Cc1c(-c2ccnn2-c2ccc(C#N)cc2)c(=O)n(C(C)CCN2CCOCC2)c(=O)n1-c1cccc(C(F)(F)F)c1 (stereo not drawn) [Example 399]
4.9 nM | Cc1c(-c2ccnn2-c2ccc(C#N)cc2)c(=O)n([C@H](C)CO)c(=O)n1-c1cccc(C(F)(F)F)c1 [Example 55, (R)-4-(5-(3-(1-hydroxypropan-2-yl)-6-methyl-2,4-dioxo-1-(3-(trifluoromethyl)phenyl)-1,2,3,4-tetrahydropyrimidin-5-yl)-1H-pyrazol-1-yl)benzonitrile]
